# Literature values as cited in US20080146534A1, “PHARMACEUTICAL COMPOSITION FOR REDUCING THE RISKS ASSOCIATED WITH CARDIOVASCULAR AND CEREBROVASCULAR DISEASES” (priority 2006, published 2008).
# Conditions: at clinical doses
compound,measurement,setting,value
"O=C1CCc2cc(OCCCCc3nnnn3C3CCCCC3)ccc2N1 [Cilostazol, 6-[4-(1-cyclohexyl-1H-tetrazol-5-yl)butoxy]-3,4-dihydro-2(1H)-quinolinon]",increase in heart rate,,about 7 beats/minute
same,ventricular premature beat (VPB) rate,small increase from 1/hour,4 h⁻¹
